Biological target: T1, rat BK1 receptor (Rattus norvegicus, UniProt P97583)
T1 construct: expressed in transfected cells
T1 sequence (P97583 1-337): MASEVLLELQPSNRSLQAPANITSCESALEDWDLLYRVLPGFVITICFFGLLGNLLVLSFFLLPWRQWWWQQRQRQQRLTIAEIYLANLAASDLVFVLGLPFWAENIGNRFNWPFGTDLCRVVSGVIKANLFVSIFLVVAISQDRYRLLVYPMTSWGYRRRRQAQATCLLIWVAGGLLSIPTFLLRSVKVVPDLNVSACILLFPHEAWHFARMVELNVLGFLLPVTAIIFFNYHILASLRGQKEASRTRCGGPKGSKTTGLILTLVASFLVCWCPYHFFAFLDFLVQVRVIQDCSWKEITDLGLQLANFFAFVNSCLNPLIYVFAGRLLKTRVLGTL
Assay: Bradykinin BK1-receptor binding (radioligand displacement, membranes of CHO cells)
Conditions: membranes of CHO cells stably expressing the rat BK1 receptor; 1 to 5 nM [3H]-kallidin (DesArg10, Leu9); 120 minutes at room temperature
Method: Description of the Method of Bradykinin BK1-Receptor Binding
CHO cells stably expressing the rat BK1 receptor are cultivated in Dulbecco's modified medium. The medium from confluent cultures is removed and the cells are washed with PBS buffer, scraped off and isolated by centrifugation. The cells are then homogenized in suspension and the homogenate is centrifuged and resuspended. The protein content is determined and the membrane preparation obtained in this manner is then frozen at −80° C.
After thawing, 200 μl of the homogenate (50 to 100 μg of proteins/assay) are incubated at room temperature with 1 to 5 nM of kallidin (DesArg10, Leu9), [3,4-prolyl-3,43H(N)] and increasing concentrations of the test substance in a total volume of 250 μl for 120 minutes. The incubation is terminated by rapid filtration through GF/B glass fibre filters which had been pretreated with polyethyleneimine (0.3%). The protein-bound radio-activity is measured in a TopCount NXT (Perkin Elmer/Packard). Non-specific binding is defined as radioactivity bound in the presence of 1.0 μM Lys-Des-Arg9-bradykinin. The concentration/binding curve is analysed using a computer-assisted nonlinear curve fitting. The Ki which corresponds to the test substance is determined using the data obtained in this manner.
It is pointed out that the compounds were selected for their different structural elements and not in order to emphasise specific compounds: […]

Row | Ki [nM] | SMILES
1 | 24.7 | COc1cc(C)c(S(=O)(=O)N(C)CCOCC(=O)N(C)[C@@H]2CCN(C3CCN(C4CCOCC4)CC3)C2)c(C)c1 [Example 3]
2 | 181 | COc1cc(C)c(S(=O)(=O)N(C)CCOCC(=O)N(C)C[C@@H]2CCN(C(=O)CCN3CCCC3)C2)c(C)c1 [Example 6]
3 | 23.5 | COc1cc(C)c(S(=O)(=O)N(C)CCOCC(=O)N(C)[C@@H]2CCN(C3CCN(C4CC4)CC3)C2)c(C)c1 [Example 8]

Source: US20110046106A1, “ARYL SULFONAMIDES AS EFFECTIVE ANALGESICS” (BOEHRINGER INGELHEIM INTERNATIONAL GMBH, priority 2008, published 2011)
